Assay results reported in patent publication US20250235462A1, “NOVEL CAPSID ASSEMBLY INHIBITORS” (AM SCIENCES INC, priority 2021, published 2025).

How the values were obtained:
intracellular HBV DNA = experiment: Real-time PCR for intracellular HBV DNA in HepAD38 cells; assay type: cell-based, hepatitis B virus (HBV); conditions: Hepatitis B virus, HePAD38, 65 h, treated for 65 hours, intracellular HBV DNA by real-time PCR
Protocol: HepAD38 cells were cultured in DMEM medium (Welgene) supplemented with 200 unit/mL penicillin, 200 μg/mL streptomycin, and 10% FBS. During maintenance and passage, the cells were cultured together with 0.4 μg/mL tetracycline. Two days before the treatment with compounds for inducing HBV replication was started, the medium was replaced with a tetracycline-free complete growth medium. […]
HepAD38 cells were treated with a compound for 65 hours and then recovered, and intracellular HBV DNA was extracted therefrom according to the protocol in the DNeasy Blood & Tissue Kit (Qiagen). The primers and probes used to quantify HBV DNA were 5′-[…]-3′, 5′-[…]-3′, and 5′-/56-FAM/TGT CCT GGT/ZEN/[…]/3IABKFQ/-3′. The HBV DNA was amplified by real-time PCR assay using LightCycler 480 (Roche) (J. Virol., 2018, 92(16):e00339-18). All of the processes were confirmed in duplicate.

[1] = molecular target: Protein (capsid assembly) (Hepatitis B virus genotype D subtype ayw, UniProt P03146); experiment: Protein inhibition (capsid assembly inhibition), Table 1; assay type: biochemical; conditions: for inhibition at 30 µM: read-out: Protein % inhibition rate (@30 μM); for EC50: NVR value of the same run in brackets, read-out: Protein EC50
Sequence of Protein (capsid assembly) (P03146 whole entry): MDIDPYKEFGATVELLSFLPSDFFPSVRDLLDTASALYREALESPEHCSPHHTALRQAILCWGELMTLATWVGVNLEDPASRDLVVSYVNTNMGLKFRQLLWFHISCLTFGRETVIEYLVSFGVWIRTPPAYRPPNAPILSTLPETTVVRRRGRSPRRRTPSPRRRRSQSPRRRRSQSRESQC

| Structure (SMILES) | IC50 (intracellular HBV DNA) | inhibition at 30 µM [1] | EC50 [1] |
| --- | --- | --- | --- |
| O=C(Nc1ccccc1Cl)N(Cc1nnc2n1CCCCC2)c1ccc2c(c1)OCO2 [Example 5, 1-(Benzo[d][1,3]dioxol-5-yl)-3-(2-chlorophenyl)-1-((6,7,8,9-tetrahydro-5H-[1,2,4]triazolo[4,3-a]azepin-3-yl)methyl)urea] | > 3.3 µM | 9% | – |
| O=C(Nc1ccc(F)c(Cl)c1)N(Cc1nnc2n1CCCCC2)C1CCCC1 [Example 6, 3-(3-Chloro-4-fluorophenyl)-1-cyclopentyl-1-((6,7,8,9-tetrahydro-5H-[1,2,4]triazolo[4,3-a]azepin-3-yl)methyl)urea] | 1.57 µM | 77% | 1.2 µM |
| COc1ccc(N(Cc2nnc3n2CCCCC3)C(=O)N(C)c2ccc(F)c(Cl)c2)cc1 [Example 9, 1-(3-Chloro-4-fluorophenyl)-3-(4-methoxyphenyl)-1-methyl-3-((6,7,8,9-tetrahydro-5H-[1,2,4]triazolo[4,3-a]azepin-3-yl)methyl)urea] | 0.75 µM | 5% | – |
| O=C(Nc1ccc(F)c(Cl)c1)N(Cc1nnc2n1CCCCC2)c1ccc2cc[nH]c2c1 [Example 10, 3-(3-Chloro-4-fluorophenyl)-1-(1H-indol-6-yl)-1-((6,7,8,9-tetrahydro-5H-[1,2,4]triazolo[4,3-a]azepin-3-yl)methyl)urea] | > 3.3 µM | 85% | – |
| O=C(NC1CCCC1)N(Cc1nnc2n1CCCCC2)c1ccc2c(c1)OCO2 [Example 11, 1-(Benzo[d][1,3]dioxol-5-yl)-3-cyclopentyl-1-((6,7,8,9-tetrahydro-5H-[1,2,4]triazolo[4,3-a]azepin-3-yl)methyl)urea] | > 3.3 µM | 4% | – |
| CNc1ccc(N(Cc2nnc3n2CCCCC3)C(=O)Nc2ccc(F)c(Cl)c2)cc1 [Example 14, 3-(3-Chloro-4-fluorophenyl)-1-(4-(methylamino)phenyl)-1-((6,7,8,9-tetrahydro-5H-[1,2,4]triazolo[4,3-a]azepin-3-yl)methyl)urea] | > 0.55 µM | 92% | 2.8 µM |
| COc1ccc(N(Cc2nnc(C)n2C)C(=O)Nc2ccc(F)c(Cl)c2)cc1 [Example 15, 3-(3-Chloro-4-fluorophenyl)-1-((4,5-dimethyl-4H-1,2,4-triazol-3-yl)methyl)-1-(4-methoxyphenyl)urea] | > 3.3 µM | 55.3% | 29 µM |
| CC(C)(C)OC(=O)n1ccc2cc(N(Cc3nnc4n3CCCCC4)C(=O)Nc3ccc(F)c(Cl)c3)ccc21 [Example 17, tert-Butyl 5-(3-(3-chloro-4-fluorophenyl)-1-((6,7,8,9-tetrahydro-5H-[1,2,4]triazolo[4,3-a]azepin-3-yl)methyl)ureido)-1H-indole-1-carboxylate] | > 3.3 µM | 92.6% | 13 µM |
| O=C(Nc1ccc(F)c(Cl)c1)N(Cc1nnc2n1CCCCC2)c1ccc2[nH]ccc2c1 [Example 18, 3-(3-Chloro-4-fluorophenyl)-1-(1H-indol-5-yl)-1-((6,7,8,9-tetrahydro-5H-[1,2,4]triazolo[4,3-a]azepin-3-yl)methyl)urea] | > 3.3 µM | 96.8% | 4.8 µM |
| N#Cc1cccc(N(Cc2nnc3n2CCCCC3)C(=O)Nc2ccc(F)c(Cl)c2)c1 [Example 19, 3-(3-Chloro-4-fluorophenyl)-1-(3-cyanophenyl)-1-((6,7,8,9-tetrahydro-5H-[1,2,4]triazolo[4,3-a]azepin-3-yl)methyl)urea] | > 3.3 µM | 94% | – |
| Cc1cccc(NC(=O)N(Cc2nnc3n2CCCCC3)c2ccc3c(c2)OCO3)n1 [Example 20, 1-(Benzo[d][1,3]dioxol-5-yl)-3-(6-methylpyridin-2-yl)-1-((6,7,8,9-tetrahydro-5H-[1,2,4]triazolo[4,3-a]azepin-3-yl)methyl)urea] | 0.89 µM | 3% | – |
